In series [1] the test system is CaOV-3 ovarian cancer cells. Put plainly: Automated Trypan Blue exclusion cell death assay, Caov-3. The format is cell-based, human. To be noted: 24 hours. On the procedure: FIG. 33. 105, but not BHPI, kills therapy-resistant ovarian CaOV-3 ovarian cancer cells. (±)-105; Cell death assay: Automated Trypan Blue exclusion. (24 hours post (±)-105)
(§1) TRYPAN BLUE: For decades, viable cells have been measured by their ability to exclude the dye Trypan Blue. […] Dead cells, which have lost membrane integrity, take up the dye and are blue. Thus, the percentage of dead cells is the percentage of cells that are Trypan Blue positive out of the total cell population. Quantitative assessment of Trypan Blue uptake uses a cell counter from Fisher. Since the assay is instrument based, there is no observer bias in determining the percentage of Trypan Blue positive cells.
TRYPAN BLUE ASSAYS: Assays are performed on cells in 6 well plates: 300,000 cells are plated in each well of a 6-well plate in 3 ml of medium. After 24 hours, the DMSO vehicle or the indicated compound is added (in 1000th of the vol.) The cells incubated for an additional 24 hours, and then harvested in 0.25 ml of trypsin, followed after harvest by 0.75 ml of medium. The cells are spun down and resuspended in 100-200 μl of medium left that is over the cell pellet (resuspend cells by pipetting up and down a few times). Add 10 μl to 10 μl of trypan blue. Then 10 μl is inserted into the counting slide. […]

Series [2] deals with ERα Negative MCF-10A cells. Put plainly: Trypan Blue exclusion cell death assay, MCF-10A. To be noted: 75 nM, 24 hours. Format: cell-based.
Excerpt: as §1
TRYPAN BLUE ASSAYS: Assays are performed on cells in 6 well plates: 300,000 cells are plated in each well of a 6-well plate in 3 ml of medium. After 24 hours, the DMSO vehicle or the indicated compound is added (in 1000th of the vol.) The cells incubated for an additional 24 hours, and then harvested in 0.25 ml of trypsin, followed after harvest by 0.75 ml of medium. The cells are spun down and resuspended in 100-200 μl of medium left that is over the cell pellet (resuspend cells by pipetting up and down a few times). Add 10 μl to 10 μl of trypan blue. Then 10 μl is inserted into the counting slide. After inserting the slide into the Fisher TC20 counting is automatic (these many cells are needed because an accurate ratio of Trypan Blue positive to Trypan Blue negative cells requires about 200 cells in the field the instrument counts).
In FIG. 28, neither the test compounds nor BHPI kill non-tumorigenic ERα Negative MCF-10A breast cells. ERα Negative MCF-10A cells were maintained for 24 hours in DMSO vehicle or 75 nM of BHPI or 75 nM of each of the indicated test compounds: 4, 6 and 105. Cell death was determined using the instrument-based Trypan Blue exclusion assay. (n=3±SEM).

Another series concerns T47D, TYS and TDG cells. The series can be described thus: MTS proliferation assay (4 days), T47D, TYS and TDG. Format: cell-based, human. On the procedure: FIG. 30 compares the ability of BHPI and test compounds to inhibit proliferation of T47D, TYS and TDG cells. T47D cells were in medium containing 10 FBS (which contains estrogen), TYS-4 and TDG-1 cells were in medium containing 10% cd-FBS (estrogen depleted). Cells are plated at 2,000 cells/well in 96 well plates. After 24 hours in medium containing FBS or charcoal-dextran treated FBS (depleted of endogenous estrogens), the indicated concentration of each compound (in DMSO at 1/1000th of the volume of medium) was added. After 2 days the medium was changed, and the compounds were added again. After 2 additional days (4 days total) MTS assays are used to evaluate cell proliferation. (n=6 ±S.E.M.).
(Tetrazolium assays rely on reduction of a dye to a coloured formazan, in cell work by metabolically active cells.)

In series [3] the test system is partially BHPI-resistant T47D clones 1,3,8, and 11. Put plainly: MTS growth assay, partially BHPI-resistant T47D clones. Format: cell-based, human. As to conditions: 100 nM and 1 μM; 4 days. As to the method: ERα containing T47D human breast cancer cells able to survive in 1 μM BHPI were selected by clonal outgrowth. The effect of 100 nM and 1 μM BHPI and (−)-105 on growth of the (BHPI-sensitive) parental T47D cells and partially BHPI-resistant T47D clones 1,3,8, and 11 was evaluated. 4,000 cells/well were plated. Cell number was determined by MTS assay from a standard curve of absorbance versus cell number. […] Thus, in 4 days (−)-105 killed some, but not all, of the resistant cells.

A further series relates to MCF-7 cells. The series can be described thus: Trypan Blue exclusion cell death assay, MCF-7. Format: cell-based, human. To be noted: 24 hours.
Excerpt: as §1
TRYPAN BLUE ASSAYS: Assays are performed on cells in 6 well plates: 300,000 cells are plated in each well of a 6-well plate in 3 ml of medium. After 24 hours, the DMSO vehicle or the indicated compound is added (in 1000th of the vol.) The cells incubated for an additional 24 hours, and then harvested in 0.25 ml of trypsin, followed after harvest by 0.75 ml of medium. […]
The Trypan Blue cell death assay was used to evaluate the ability of the active enantiomer of 105 (−) [(−)-105] to kill ERα positive MCF-7 and TYS-Luc, human breast cancer cells. […] After 24 hours, the cells were harvested, and the % dead cells was determined by automated Trypan Blue exclusion using the Countess II automated hemocytometer. Percentage of viable cells was calculated by doing 100-(Cell Death %). […]

Series [4] relates to MCF-7Y537S (MCF-7 ERαY537S-luciferase) cells. Put plainly: Long-term cell culture experiment, MCF-7 ERαY537S-luciferase. Format: cell-based, human. As to conditions: conditions as FIG. 15 (1 μM).
Series [5] concerns MYS and MDG cells (MCF-7 with Y537S or D538G ERα) tumors. The series can be described thus: MYS-luc / MDG-luc orthotopic tumors. Format: in vivo, mouse. As to conditions: daily dosing. The source says: FIG. 41. […]
FIG. 43. SERK-F6-mediated eradication of MYS/MDG tumors is dependent on quantitative cell killing. a-b, MYS-luc. orthotopic tumors were established in NSG ovariectomized mice (no E2 pellet, ˜45 days to establish) and dosed daily as indicated (n=5-6), b, Treatment of MYS-luc, tumors were stopped after 21 daily doses of SERK-F6 and mice tumor burden was tracked via bioluminescence. […]

Molecules are shown by their SMILES.

In the case of `O=C1Nc2c(C(F)(F)F)cccc2C1(c1ccc(O)cc1)c1ccc(OC(F)(F)F)cc1` (racemic) [(±)-105, 3-(4-hydroxyphenyl)-3-(4-(trifluoromethoxy)phenyl)-7-(trifluoromethyl)indolin-2-one], the “killing of Caov-3 cells” value in series [1] was “kills”. Besides, the “cell death of MCF-10A cells” value in series [2] is reported as “neither BHPI nor any of the test compounds induce significant death”. For the same compound, in the series with T47D, TYS and TDG cells, the “effectiveness in killing compared with BHPI” value is given as “more effective than BHPI”.
As for `O=C1Nc2c(C(F)(F)F)cccc2C1(c1ccc(O)cc1)c1ccc(OC(F)(F)F)cc1` (single isomer, unassigned; (-)) [(−)-105, 3-(4-hydroxyphenyl)-3-(4-(trifluoromethoxy)phenyl)-7-(trifluoromethyl)indolin-2-one], in series [3], the “effect on growth / cell number” value is “completely blocked the growth of the resistant clones”. The “killing of MCF-7 cells, dose response” value in the series on MCF-7 cells was “superior to BHPI”. For the same compound, the “eradication of cells in long-term experiment” value in series [4] is reported as “eradicates”. Moreover, the tumor response result in series [5] is reported as “Dramatic tumor regressions were observed”.

(Values after US11046647B2, “Activators of the unfolded protein response” (The Board of Trustees of the University of Illinois, priority 2018, dated 2021).)
